Laboratory results: patent publication US20230041563A1, “N-(1,3,4-OXADIAZOL-2-YL)ARYLCARBOXAMIDES OR SALTS THEREOF, PREPARATION METHODS, HERBICIDAL COMPOSITIONS AND USES THEREOF” (priority 2018, published 2023)

Columns and labels:
Assay in all cases: Weeding effect in post-emergence stage (greenhouse pot spray)
Format in all cases: in vivo
Abutilon theophrasti = conditions: for Abutilion theophrasti (activity level): Table 2, dose 250 g a.i./ha
Description: (§1) The activity level criteria for plant damage (i.e., growth control rate) are as follows:
(§2) The above growth control rates are fresh weight control rates.
(§3) Experiment on weeding effect in post-emergence stage: monocotyledonous and dicotyledonous weed seeds (Descurainia sophia, Capsella bursa-pastoris, Abutilon theophrasti, Galium aparine, Stellaria media, Lithospermum arvense, rorippa indica, Alopecurus aequalis, Beckmannia syzigachne, Sclerochloa dura, Phleum paniculatum, Bromus japonicus, Aegilops tauschii, Phalaris arundinacea, Amaranthus retroflexus, Chenopodiaceae, Commelina communis, Sonchus arvensis, convolvulus arvensis, Cirsium setosum, Solanum nigrum, Acalypha australis, Digitaria sanguinalis, Echinochloa crusgalli, Setaria viridis, Setaria glauca, Leptochloa chinensis, Monochoria vaginalis, Sagittaria trifolia, Scirpus juncoides, Cyperus rotundus, Cyperus iria, Cyperus difformis, Fimbristylis, Portulaca oleracea, Xanthium sibiricum, Pharbitis nil) and major crop seeds (wheat, corn, rice, soybean, cotton, oilseed rape, millet, sorghum, potato, sesame, ricinus) were placed in plastic pots filled with soil, then covered with 0.5-2 cm of soil, allowed to grow in a good greenhouse environment. After 2 weeks of sowing, the test plants were treated in the 2 to 3 leaf stage. The tested compounds of the present invention were respectively dissolved in acetone, then added with Tween 80 and 1.5 liter/ha of emulsifiable concentrate of methyl oleate as synergist, diluted with a certain amount of water to obtain a solution with a certain concentration, and sprayed with a spray tower onto the plants. After the application, the plants were cultured for 3 weeks in the greenhouse, and then the experimental results of the weeding were counted. […]

Digitaria sanguinalis = system: Digitaria sanguinalis
Description: as §1, §2, §3

Setaria viridis = system: Setaria viridis
Description: as §1, §2, §3

Echinochloa crusgalli = system: Echinochloa crusgalli
Description: as §1, §2, §3

Stellaria media = conditions: Table 2, dose 250 g a.i./ha
Description: as §1, §2
(§4) Experiment on weeding effect in post-emergence stage: monocotyledonous and dicotyledonous weed seeds (Descurainia sophia, Capsella bursa-pastoris, Abutilon theophrasti, Galium aparine, Stellaria media, Lithospermum arvense, rorippa indica, Alopecurus aequalis, Beckmannia syzigachne, Sclerochloa dura, Phleum paniculatum, Bromus japonicus, Aegilops tauschii, Phalaris arundinacea, Amaranthus retroflexus, Chenopodiaceae, Commelina communis, Sonchus arvensis, convolvulus arvensis, Cirsium setosum, Solanum nigrum, Acalypha australis, Digitaria sanguinalis, Echinochloa crusgalli, Setaria viridis, Setaria glauca, Leptochloa chinensis, Monochoria vaginalis, Sagittaria trifolia, Scirpus juncoides, Cyperus rotundus, Cyperus iria, Cyperus difformis, Fimbristylis, Portulaca oleracea, Xanthium sibiricum, Pharbitis nil) and major crop seeds (wheat, corn, rice, soybean, cotton, oilseed rape, millet, sorghum, potato, sesame, ricinus) were placed in plastic pots filled with soil, then covered with 0.5-2 cm of soil, allowed to grow in a good greenhouse environment. After 2 weeks of sowing, the test plants were treated in the 2 to 3 leaf stage. The tested compounds of the present invention were respectively dissolved in acetone, then added with Tween 80 and 1.5 liter/ha of emulsifiable concentrate of methyl oleate as synergist, diluted with a certain amount of water to obtain a solution with a certain concentration, and sprayed with a spray tower onto the plants. After the application, the plants were cultured for 3 weeks in the greenhouse, and then the experimental results of the weeding were counted. The doses of the used compounds were 500, 250, 125, 60, 15 g a.i./ha, and the averages were obtained by repeating for three times.

Amaranthus retroflexus = system: Amaranthus retroflexus
Description: as §1, §2, §4

Structure (SMILES): CCC(C)[S+]([O-])c1c(C(F)(F)F)ccc(C(=O)Nc2nnc(C)o2)c1F (mixture of isomers) [Compound 1-17]
- Abutilon theophrasti (activity level) (Abutilon theophrasti; Table 3, dose 60 g a.i./ha): 5 (Level 5: growth control rate is above 85%)
- Digitaria sanguinahs (activity level) (Digitaria sanguinalis; Table 3, dose 60 g a.i./ha): 5 (Level 5: growth control rate is above 85%)
- Setaria viridis (activity level) (Setaria viridis; Table 3, dose 60 g a.i./ha): 5 (Level 5: growth control rate is above 85%)

Structure (SMILES): CC(C)[S@+]([O-])c1c(C(F)(F)F)ccc(C(=O)Nc2nnco2)c1F [3-11 (R-configuration)]
- Echinochloa crusgali (activity level) (Echinochloa crusgalli; Table 3, dose 125 g a.i./ha): 5 (Level 5: growth control rate is above 85%)
- Digitaria sanguinahs (activity level) (Digitaria sanguinalis; Table 3, dose 125 g a.i./ha): 5 (Level 5: growth control rate is above 85%)
- Setaria viridis (activity level) (Setaria viridis; Table 3, dose 125 g a.i./ha): 5 (Level 5: growth control rate is above 85%)

Structure (SMILES): CCCC[S@+]([O-])c1c(C(F)(F)F)ccc(C(=O)Nc2nnco2)c1F [3-14 (R-configuration)]
- Echinochloa crusgali (activity level) (Echinochloa crusgalli; Table 3, dose 60 g a.i./ha): 5 (Level 5: growth control rate is above 85%)
- Digitaria sanguinahs (activity level) (Digitaria sanguinalis; Table 3, dose 60 g a.i./ha): 5 (Level 5: growth control rate is above 85%)
- Setaria viridis (activity level) (Setaria viridis; Table 3, dose 60 g a.i./ha): 5 (Level 5: growth control rate is above 85%)

Structure (SMILES): CC(C)C[S@@+]([O-])c1c(C(F)(F)F)ccc(C(=O)Nc2nnco2)c1F [3-20 (R-configuration)]
- Echinochloa crusgali (activity level) (Echinochloa crusgalli; Table 3, dose 125 g a.i./ha): 5 (Level 5: growth control rate is above 85%)
- Digitaria sanguinahs (activity level) (Digitaria sanguinalis; Table 3, dose 125 g a.i./ha): 5 (Level 5: growth control rate is above 85%)
- Setaria viridis (activity level) (Setaria viridis; Table 3, dose 125 g a.i./ha): 5 (Level 5: growth control rate is above 85%)

Structure (SMILES): O=C(Nc1nnco1)c1ccc(C(F)(F)F)c([S@@+]([O-])CCC(F)(F)F)c1F [3-52 (R-configuration)]
- Echinochloa crusgali (activity level) (Echinochloa crusgalli; Table 3, dose 125 g a.i./ha): 5 (Level 5: growth control rate is above 85%)
- Digitaria sanguinahs (activity level) (Digitaria sanguinalis; Table 3, dose 125 g a.i./ha): 5 (Level 5: growth control rate is above 85%)
- Setaria viridis (activity level) (Setaria viridis; Table 3, dose 125 g a.i./ha): 5 (Level 5: growth control rate is above 85%)

Structure (SMILES): COCC[S@+]([O-])c1c(C(F)(F)F)ccc(C(=O)Nc2nnco2)c1F [3-57 (R-configuration)]
- Echinochloa crusgali (activity level) (Echinochloa crusgalli; Table 3, dose 125 g a.i./ha): 5 (Level 5: growth control rate is above 85%)
- Digitaria sanguinahs (activity level) (Digitaria sanguinalis; Table 3, dose 125 g a.i./ha): 5 (Level 5: growth control rate is above 85%)
- Setaria viridis (activity level) (Setaria viridis; Table 3, dose 125 g a.i./ha): 5 (Level 5: growth control rate is above 85%)

Structure (SMILES): CCC[S@@+]([O-])c1c(C(F)(F)F)ccc(C(=O)Nc2nnc(C(C)C)o2)c1F [6-8 (R-configuration)]
- Echinochloa crusgali (activity level) (Echinochloa crusgalli; Table 3, dose 250 g a.i./ha): 5 (Level 5: growth control rate is above 85%)
- Digitaria sanguinahs (activity level) (Digitaria sanguinalis; Table 3, dose 250 g a.i./ha): 5 (Level 5: growth control rate is above 85%)
- Setaria viridis (activity level) (Setaria viridis; Table 3, dose 250 g a.i./ha): 5 (Level 5: growth control rate is above 85%)

Structure (SMILES): Cc1nnc(NC(=O)c2ccc(C(F)(F)F)c(SC(C)C)c2F)o1 [Compound 1-10]
- Stellaria media (activity level) (Stellaria media): 5 (Level 5: growth control rate is above 85%)
- Amaranthus retroflexus (activity level) (Amaranthus retroflexus; Table 2, dose 250 g a.i./ha): 5 (Level 5: growth control rate is above 85%)
- Echinochloa crusgah (activity level) (Echinochloa crusgalli; Table 2, dose 250 g a.i./ha): 5 (Level 5: growth control rate is above 85%)
- Abutilion theophrasti (activity level) (Abutilon theophrasti): 5 (Level 5: growth control rate is above 85%)

Structure (SMILES): CCCCS(=O)(=O)c1c(C(F)(F)F)ccc(C(=O)Nc2nnc(C)o2)c1F [Compound 1-15]
- Stellaria media (activity level) (Stellaria media): 5 (Level 5: growth control rate is above 85%)
- Amaranthus retroflexus (activity level) (Amaranthus retroflexus; Table 2, dose 250 g a.i./ha): 5 (Level 5: growth control rate is above 85%)
- Abutilion theophrasti (activity level) (Abutilon theophrasti): 5 (Level 5: growth control rate is above 85%)

Structure (SMILES): C=CCSc1c(C(F)(F)F)ccc(C(=O)Nc2nnc(C)o2)c1F [Compound 1-40]
- Amaranthus retroflexus (activity level) (Amaranthus retroflexus; Table 2, dose 500 g a.i./ha): 5 (Level 5: growth control rate is above 85%)
- Echinochloa crusgah (activity level) (Echinochloa crusgalli; Table 2, dose 500 g a.i./ha): 5 (Level 5: growth control rate is above 85%)
- Digitaria sanguinalis (activity level) (Digitaria sanguinalis; Table 2, dose 500 g a.i./ha): 5 (Level 5: growth control rate is above 85%)
